Consider 47 compounds from patent US11365192B2, “Pyridine compound substituted with azole” (TAISHO PHARMACEUTICAL CO., LTD., priority 2017, dated 2022).

One assay concerns the target human CYP4F2 (Homo sapiens (Human), UniProt P78329). In words: Inhibition test against 20-HETE producing enzyme CYP4F2 (luciferine derivative, luminescence). The format is biochemical. In short, it runs like this:
(§1)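 IC50 derived from luminescence after 60 min at room temperature with membrane fractions of E. coli expressing each human CYP (100 μg/mL protein). For CYP4A11, 60 μM luciferin derivative in 100 mM Tris-HCl pH 7.5 with NADPH-regenerating system; for CYP4F2, 2.5 μM substrate, 1 mM NADPH, 50 mM KPO4 pH 7.4.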

The next assay has as its target human CYP4A11 (Homo sapiens (Human), UniProt Q02928). In words: Inhibition test against 20-HETE producing enzyme CYP4A11 (luciferine derivative, luminescence). It counts as biochemical. Put shortly: as §1
The mark [1] stands for this setting: human CYP4F2, luciferine derivative, luminescence.
Where [2] appears, read: human CYP4A11, luciferine derivative, luminescence.
Setting [3] is: E. coli membrane fraction expressing human CYP4F2, 2.5 μM luciferine derivative, room temperature 60 minutes.
Where [4] appears, read: E. coli membrane fraction expressing human CYP4A11, 60 μM luciferine derivative, room temperature 60 minutes.

Sequence of human CYP4F2 (P78329 5-520): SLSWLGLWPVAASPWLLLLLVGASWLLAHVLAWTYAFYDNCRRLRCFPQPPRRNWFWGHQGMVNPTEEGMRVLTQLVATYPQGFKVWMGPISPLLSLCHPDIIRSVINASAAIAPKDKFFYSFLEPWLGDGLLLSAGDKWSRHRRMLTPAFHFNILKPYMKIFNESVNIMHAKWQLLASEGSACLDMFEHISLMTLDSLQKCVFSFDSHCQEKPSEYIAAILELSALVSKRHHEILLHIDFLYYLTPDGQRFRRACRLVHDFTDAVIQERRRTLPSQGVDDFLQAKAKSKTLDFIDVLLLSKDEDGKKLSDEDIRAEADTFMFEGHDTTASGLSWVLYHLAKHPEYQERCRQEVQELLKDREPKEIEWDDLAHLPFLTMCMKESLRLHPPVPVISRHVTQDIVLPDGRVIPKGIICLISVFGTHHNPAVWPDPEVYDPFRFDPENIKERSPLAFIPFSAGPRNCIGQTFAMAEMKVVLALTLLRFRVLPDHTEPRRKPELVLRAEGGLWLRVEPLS
Sequence of human CYP4A11 (Q02928 5-519): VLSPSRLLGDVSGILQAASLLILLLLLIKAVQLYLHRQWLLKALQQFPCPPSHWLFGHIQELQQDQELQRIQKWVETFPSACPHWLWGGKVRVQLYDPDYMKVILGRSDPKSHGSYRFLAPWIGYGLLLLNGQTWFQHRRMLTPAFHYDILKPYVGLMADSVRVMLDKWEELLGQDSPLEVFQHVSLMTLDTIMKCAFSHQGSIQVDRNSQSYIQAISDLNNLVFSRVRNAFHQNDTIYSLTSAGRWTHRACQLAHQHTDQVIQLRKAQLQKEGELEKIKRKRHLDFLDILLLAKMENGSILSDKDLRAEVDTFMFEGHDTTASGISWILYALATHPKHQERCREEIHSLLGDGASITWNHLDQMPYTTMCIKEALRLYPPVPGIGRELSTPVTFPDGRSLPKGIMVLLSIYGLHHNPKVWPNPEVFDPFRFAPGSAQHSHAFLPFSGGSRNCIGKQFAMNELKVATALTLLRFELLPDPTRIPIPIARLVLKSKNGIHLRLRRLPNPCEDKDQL

What is called IC50 is the concentration at which inhibition is half-maximal. `O=C(O)C1CC1c1ccc(F)c(CCOc2ccc(-c3ccn[nH]3)nc2)c1` (single isomer, unassigned) [Example 74-7]: the IC50 against human CYP4F2 (setting [1]) stood at 1.3 µM; at human CYP4A11 (setting [2]), 0.078 µM.

As for `CC(C)(C(=O)O)C(=O)N1CCc2ccc(COc3ccc(-c4ccn[nH]4)nc3)cc2C1` [Example 17-1, 2,2-Dimethyl-3-oxo-3-[7-[[6-(1H-pyrazol-5-yl)-3-pyridinyl]oxymethyl]-3,4-dihydro-1H-isoquinolin-2-yl]propanoic Acid], the IC50 at human CYP4F2 (setting [3]) stood at 0.18 µM; against human CYP4A11 (setting [4]), 1.4 µM.

For the compound `O=C(O)CCc1cccc(COc2ccc(-c3ccn[nH]3)nc2)c1` [Example 22-4], the IC50 against human CYP4F2 (setting [3]) came out at 1.4 µM; against human CYP4A11 (setting [4]), 0.02 µM.

`O=C(O)CCC(=O)N1CCC[C@@H](COc2ccc(-c3ccn[nH]3)nc2)C1` [Example 1-24]: the half-inhibitory concentration (IC50) at human CYP4F2 (setting [3]) was 15 µM; against human CYP4A11 (setting [4]), 0.17 µM.

With `O=C(O)C1(CCCCOc2ccc(-c3ccn[nH]3)nc2)CCC1` [Example 1-33], the IC50 turned out to be 15 µM against human CYP4F2 (setting [3]) and 0.074 µM against human CYP4A11 (setting [4]).

`CC(C)(CCNS(=O)(=O)c1cccc(COc2ccc(-c3ccn[nH]3)nc2)c1)C(=O)O` [Example 21-4]: the IC50 on human CYP4F2 (setting [3]) was 1.5 µM; at human CYP4A11 (setting [4]), 0.025 µM.

With `O=C(O)CCc1cccc(COc2ccc(-c3ccn[nH]3)nc2)c1F` [Example 70-2, 3-[2-Fluoro-3-[[6-(1H-pyrazol-5-yl)pyridin-3-yl]oxymethyl]phenyl]propanoic Acid], the IC50 amounted to 1.1 µM against human CYP4F2 (setting [1]) and 0.028 µM against human CYP4A11 (setting [2]).

With `O=C(O)c1cnc(-c2cccc(COc3ccc(-c4ccn[nH]4)nc3)c2)cn1` [Example 18-4], the IC50 is 0.49 µM against human CYP4F2 (setting [3]) and 0.022 µM on human CYP4A11 (setting [4]).

For `O=C(O)C[C@H](NC(=O)c1cccc(COc2ccc(-c3ccn[nH]3)nc2)c1)c1ccccc1` [Example 45-7], the half-maximal inhibitory concentration (IC50) on human CYP4F2 (setting [1]) stood at 2.9 µM; against human CYP4A11 (setting [2]), 0.78 µM.

As for `O=C(O)C1(Cc2cccc(COc3ccc(-c4ccn[nH]4)nc3)c2F)COC1` [Example 71-26], the IC50 at human CYP4F2 (setting [1]) came out at 9.7 µM; on human CYP4A11 (setting [2]) it was 0.039 µM.

Take `CC(C)(CCCCCCCCOc1ccc(-c2ccn[nH]2)nc1)C(=O)O` [Example 1-63]: the half-inhibitory concentration (IC50) worked out at 0.0089 µM against human CYP4F2 (setting [3]) and 0.036 µM against human CYP4A11 (setting [4]).

Take `O=C(O)C(F)(F)c1cccc(COc2ccc(-c3ccn[nH]3)nc2)c1` [Example 60-1, 2,2-Difluoro-2-[3-[[6-(1H-pyrazol-5-yl)-3-pyridinyl]oxymethyl]phenyl]acetic Acid]: the IC50 on human CYP4F2 (setting [3]) was 37 µM; against human CYP4A11 (setting [4]) it was 0.0082 µM.

Consider `O=C(O)c1cccc(-c2cccc(COc3ccc(-c4ccn[nH]4)nc3)c2)c1` [Example 31-1, 3-[3-[[6-(1H-Pyrazol-5-yl)-3-pyridinyl]oxymethyl]phenyl]benzoic Acid], for which the IC50 at human CYP4F2 (setting [3]) worked out at 0.11 µM; on human CYP4A11 (setting [4]) it was 0.0093 µM.

With `O=C(O)c1cccc(CCCCOc2ccc(-c3ccn[nH]3)nc2)c1` [Example 1-19], the IC50 turned out to be 0.22 µM against human CYP4F2 (setting [3]) and 0.0095 µM against human CYP4A11 (setting [4]).

With `CS(=O)(=O)NCC12CC(COc3ccc(-c4ccn[nH]4)nc3)(C1)C2` [Example 58-1, N-[[3-[[6-(1H-Pyrazol-5-yl)-3-pyridinyl]oxymethyl]-1-bicyclo[1.1.1]pentanyl]methyl]methanesulfonamide], the half-inhibitory concentration (IC50) was 0.12 µM on human CYP4F2 (setting [3]) and 0.58 µM against human CYP4A11 (setting [4]).

In the case of `O=C(O)C12CCCC(CCCOc3ccc(-c4ccn[nH]4)nc3)(C1)C2` [Example 1-55], the values for the IC50 at human CYP4F2 (setting [3]) and against human CYP4A11 (setting [4]) were 3.7 µM and 0.03 µM, respectively.

As for `O=C(O)[C@@H]1CCc2ccc(COc3ccc(-c4ccn[nH]4)nc3)cc2O1` [Example 69-3-1], the half-inhibitory concentration (IC50) worked out at 0.11 µM on human CYP4F2 (setting [1]) and 0.023 µM against human CYP4A11 (setting [2]).

Consider `CC(C)(O)c1cccc(COc2ccc(-c3ccn[nH]3)nc2)c1` [Example 27-1, 2-[3-[[6-(1-H-Pyrazol-5-yl)-3-pyridinyl]oxymethyl]phenyl]-2-propanol], for which the IC50 against human CYP4F2 (setting [3]) is 0.4 µM; against human CYP4A11 (setting [4]) it was 0.044 µM.

As to `O=C(O)/C=C/c1cccc(COc2ccc(-c3ccn[nH]3)nc2)c1` [Example 22-1, (2E)-3-[3-[[[6-(1H-Pyrazol-5-yl)pyridin-3-yl]oxy]methyl]phenyl]-2-propenoic Acid], the half-maximal inhibitory concentration (IC50) is 0.14 µM on human CYP4F2 (setting [3]) and 0.015 µM on human CYP4A11 (setting [4]).

For the compound `O=C(N[C@@H](Cc1ccccc1)C(=O)O)c1cccc(COc2ccc(-c3ccn[nH]3)nc2)c1` [Example 45-11], the values for the IC50 on human CYP4F2 (setting [1]) and against human CYP4A11 (setting [2]) were 1.2 µM and 0.023 µM, respectively.

For `O=C(O)CCc1ccc(COc2ccc(-c3ccn[nH]3)nc2)cc1` [Example 1-3], the half-inhibitory concentration (IC50) against human CYP4F2 (setting [3]) was 0.22 µM; against human CYP4A11 (setting [4]), 0.079 µM.

As for `CC(C)(CCc1cccc(COc2ccc(-c3ccn[nH]3)nc2)n1)C(=O)O` [Example 1-39], the results for the concentration for half-maximal inhibition (IC50) at human CYP4F2 (setting [3]) and on human CYP4A11 (setting [4]) were 9.8 µM and 0.42 µM, respectively.

As for `CC(C)(CCCS(=O)(=O)c1cccc(COc2ccc(-c3ccn[nH]3)nc2)c1)C(=O)O` [Example 37-1, 2,2-Dimethyl-5-[3-[[6-(1H-pyrazol-5-yl)-3-pyridinyl]oxymethyl]phenyl] sulfonylpentanoic Acid], the IC50 against human CYP4F2 (setting [3]) was determined as 0.032 µM; on human CYP4A11 (setting [4]), 0.046 µM.

As to `O=C(O)c1cc(COc2ccc(-c3ccn[nH]3)nc2)ccc1Cl` [Example 22-16], the IC50 amounted to 33 µM at human CYP4F2 (setting [3]) and 0.78 µM at human CYP4A11 (setting [4]).

Take `OC1(c2cccc(COc3ccc(-c4ccn[nH]4)nc3)c2)CCCC1` [Example 27-4]: the results for the concentration for half-maximal inhibition (IC50) on human CYP4F2 (setting [3]) and on human CYP4A11 (setting [4]) were 0.12 µM and 0.11 µM, respectively.

For the compound `CCCNC(=O)Cc1cccc(COc2ccc(-c3ccn[nH]3)nc2)c1` [Example 42-6], the IC50 against human CYP4F2 (setting [3]) came out at 0.097 µM; at human CYP4A11 (setting [4]), 0.3 µM.

Take `O=C(O)C1CCC(COc2ccc(-c3ccn[nH]3)nc2)CC1` (stereo not shown) [Example 1-42]: the IC50 at human CYP4F2 (setting [3]) came to 25 µM; on human CYP4A11 (setting [4]) it was 0.052 µM.

As for `O=C(O)CCCc1ccccc1COc1ccc(-c2ccn[nH]2)nc1` [Example 1-11], the IC50 at human CYP4F2 (setting [3]) came to 43 µM; against human CYP4A11 (setting [4]) it was 0.024 µM.

`O=C(O)c1cccc(COc2ccc(-c3ccn[nH]3)nc2)c1` [Example 22-2]: the figures for the IC50 on human CYP4F2 (setting [3]) and on human CYP4A11 (setting [4]) were 1.4 µM and 0.042 µM, respectively.

For the compound `O=C(O)c1cc(COc2ccc(-c3n[nH]cc3Cl)nc2)ccn1` [Example 1-41, 4-[[6-(4-Chloro-1H-pyrazol-3-yl)-3-pyridinyl]oxymethyl]-2-pyridinecarboxylic Acid], the concentration for half-maximal inhibition (IC50) at human CYP4F2 (setting [3]) came out at 3.7 µM; at human CYP4A11 (setting [4]), 0.097 µM.

Turning to `O=S(=O)(NCc1cccc(COc2ccc(-c3ccn[nH]3)nc2)c1)C(F)(F)F` [Example 65-1, 1,1,1-Trifluoro-N-[[3-[[6-(1-H-pyrazol-5-yl)-3-pyridinyl]oxymethyl]phenyl]methyl]methanesulfonamide], the figures for the IC50 on human CYP4F2 (setting [3]) and against human CYP4A11 (setting [4]) were 0.063 µM and 0.0081 µM, respectively.

Regarding `O=C(O)[C@@H]1CCCN(S(=O)(=O)c2cccc(COc3ccc(-c4ccn[nH]4)nc3)c2)C1` [Example 69-4-1], the half-maximal inhibitory concentration (IC50) was determined as 0.086 µM at human CYP4F2 (setting [1]) and 0.027 µM against human CYP4A11 (setting [2]).

`O=C(O)Cc1cccc(COc2ccc(-c3ccn[nH]3)nc2)c1` [Example 22-3]: the 50% inhibitory concentration (IC50) is 17 µM at human CYP4F2 (setting [3]) and 0.016 µM on human CYP4A11 (setting [4]).

As for `O=C(O)CC1CN(C(=O)c2cccc(COc3ccc(-c4ccn[nH]4)nc3)c2)C1` [Example 45-41], the IC50 was determined as 1.8 µM against human CYP4F2 (setting [1]) and 0.2 µM against human CYP4A11 (setting [2]).

Regarding `NC(=O)c1cc(COc2ccc(-c3n[nH]cc3Cl)nc2)ccn1` [Example 53-2], the IC50 is 0.016 µM against human CYP4F2 (setting [3]) and 0.95 µM on human CYP4A11 (setting [4]).

Consider `O=C(O)CCCCCCCCCOc1ccc(-c2ccn[nH]2)nc1` [Example 1-52], for which the half-maximal inhibitory concentration (IC50) at human CYP4F2 (setting [3]) worked out at 0.041 µM; on human CYP4A11 (setting [4]), 0.044 µM.

With `O=C(O)[C@@H]1CCc2cc(CCOc3ccc(-c4ccn[nH]4)nc3)ccc2O1` [Example 71-8-1], the IC50 on human CYP4F2 (setting [1]) came to 0.43 µM; on human CYP4A11 (setting [2]), 1 µM.

`O=C(O)c1ncc2c(n1)CN(C(=O)c1cccc(COc3ccc(-c4ccn[nH]4)nc3)c1)C2` [Example 45-43]: the figures for the concentration for half-maximal inhibition (IC50) on human CYP4F2 (setting [1]) and against human CYP4A11 (setting [2]) were 5.2 µM and 1.7 µM, respectively.

`O=C(NCCO)c1cccc(COc2ccc(-c3ccn[nH]3)nc2)c1` [Example 42-3]: the values for the IC50 at human CYP4F2 (setting [3]) and against human CYP4A11 (setting [4]) were 0.21 µM and 0.35 µM, respectively.

In the case of `O=C(O)[C@H]1CC[C@@H](COc2ccc(-c3ccn[nH]3)nc2)CC1` [Example 1-50], the concentration for half-maximal inhibition (IC50) was 23 µM at human CYP4F2 (setting [3]) and 0.17 µM against human CYP4A11 (setting [4]).

With `O=C(O)C1(OCCCCCCCOc2ccc(-c3ccn[nH]3)nc2)CC1` [Example 71-5], the IC50 against human CYP4F2 (setting [1]) stood at 0.039 µM; against human CYP4A11 (setting [2]), 0.096 µM.

As for `CC(C)(NS(=O)(=O)c1cccc(COc2ccc(-c3ccn[nH]3)nc2)c1)C(=O)O` [Example 75-1], the IC50 against human CYP4F2 (setting [1]) was found to be 9.3 µM; on human CYP4A11 (setting [2]), 0.021 µM.

Regarding `NC(=O)c1cc(COc2ccc(-c3ccn[nH]3)nc2)ccn1` [Example 44-7, 4-[[6-(1H-Pyrazol-5-yl)-3-pyridinyl]oxymethyl]-2-pyridinecarboxamide], the IC50 amounted to 0.085 µM against human CYP4F2 (setting [1]) and 3.8 µM on human CYP4A11 (setting [2]).

`O=C(N[C@H](Cc1ccccc1)C(=O)O)c1cccc(COc2ccc(-c3ccn[nH]3)nc2)c1` [Example 45-12]: the IC50 is 0.89 µM against human CYP4F2 (setting [1]) and 0.22 µM against human CYP4A11 (setting [2]).

Take `O=C(O)CC1CCN(C(=O)c2cccc(COc3ccc(-c4ccn[nH]4)nc3)c2)CC1` [Example 45-30]: the 50% inhibitory concentration (IC50) at human CYP4F2 (setting [1]) is 4 µM; at human CYP4A11 (setting [2]) it was 0.29 µM.

For `CC(C)(COc1cccc(CCOc2ccc(-c3ccn[nH]3)nc2)n1)C(=O)O` [Example 71-37], the results for the IC50 against human CYP4F2 (setting [1]) and on human CYP4A11 (setting [2]) were 3.5 µM and 0.16 µM, respectively.

In the case of `O=C(O)C1(Cc2cccc(COc3ccc(-c4ccn[nH]4)nc3)c2F)CC1` [Example 72-7], the figures for the IC50 on human CYP4F2 (setting [1]) and at human CYP4A11 (setting [2]) were 15 µM and 0.014 µM, respectively.
